Data: ChEMBL document CHEMBL5154689, “Discovery of novel β-carboline derivatives as selective AChE inhibitors with GSK-3β inhibitory property for the treatment of Alzheimer's disease” (Eur J Med Chem, 2022)
pIC50: −log10 of the molar value. The source made the active and inactive calls. The calls are words filed in the database; no cut-off is given here.

Columns and labels:
[1] = biological target: Cholinesterase (Equus caballus) (UniProt P81908); test: Inhibition of equine serum BChE at 50 uM using butyrylthiocholine iodide as substrate preincubated with enzyme for 20 mins followed by substrate addition and measured after 20 mins by Ellman's method; assay type: cell-free; conditions: time 40.0 min
[2] = biological target: Acetylcholinesterase (Electrophorus electricus, UniProt O42275); test: Inhibition of electric eel AChE using acetylthiocholine iodide as substrate preincubated with enzyme for 20 mins followed by substrate addition and measured after 20 mins by Ellman's method
[3] = biological target: Cholinesterase (Equus caballus, UniProt P81908); test: Inhibition of equine serum BChE using butyrylthiocholine iodide as substrate preincubated with enzyme for 20 mins followed by substrate addition and measured after 20 mins by Ellman's method; assay type: cell-free
[4] = Selectivity index, ratio of IC50 for equine serum BChE to IC50 for electric eel AChE
[5] = biological target: T1, Glycogen synthase kinase-3 beta (Homo sapiens, UniProt P49841); test: Inhibition of GSK3-beta (unknown origin) at 10 uM incubated for 60 mins by ATP-Glo luminescent assay
Target sequence in this assay (P49841 whole entry, looked up): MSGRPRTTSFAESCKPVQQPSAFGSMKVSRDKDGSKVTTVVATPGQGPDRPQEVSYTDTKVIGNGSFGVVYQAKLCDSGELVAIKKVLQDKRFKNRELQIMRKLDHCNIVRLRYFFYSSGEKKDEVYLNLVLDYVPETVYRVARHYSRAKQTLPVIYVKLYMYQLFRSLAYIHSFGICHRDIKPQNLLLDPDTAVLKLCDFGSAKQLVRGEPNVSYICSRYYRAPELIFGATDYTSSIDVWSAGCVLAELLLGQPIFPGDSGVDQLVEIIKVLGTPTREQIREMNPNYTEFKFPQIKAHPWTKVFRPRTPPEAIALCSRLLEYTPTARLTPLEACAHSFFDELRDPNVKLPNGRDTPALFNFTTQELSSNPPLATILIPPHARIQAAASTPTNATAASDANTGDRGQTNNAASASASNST

[6] = biological target: T1, Glycogen synthase kinase-3 beta; test: Inhibition of GSK3-beta (unknown origin) incubated for 60 mins by ATP-Glo luminescent assay
Target sequence in this assay (P49841 whole entry): as the sequence (P49841 whole entry, looked up) above

[7] = biological target: Dual specificity tyrosine-phosphorylation-regulated kinase 1A (Homo sapiens) (UniProt Q13627); test: Inhibition of DYRK1A (unknown origin) at 0.5 to 1 uM; conditions: dose 0.5-1 µM
[8] = biological target: Dual specificity tyrosine-phosphorylation-regulated kinase 1B (Homo sapiens) (UniProt Q9Y463); test: Inhibition of DYRK1B (unknown origin) at 0.5 to 1 uM; conditions: dose 0.5-1 µM
[9] = test system: SH-SY5Y; test: Cytotoxicity against human SH-SY5Y cells assessed as reduction in cell viability at 1 to 20 uM incubated for 48 hrs by MTT assay; assay type: toxicity, cell-based; conditions: dose 1-20 µM
[10] = test system: HepG2; test: Cytotoxicity against human HepG2 cells assessed as reduction in cell viability at 1 to 20 uM incubated for 48 hrs by MTT assay; assay type: toxicity, cell-based; conditions: hepg2, 48 h, dose 1-20 µM
[11] = test system: L02; test: Cytotoxicity against human HL7702 cells assessed as reduction in cell viability at 1 to 20 uM incubated for 48 hrs by MTT assay; assay type: toxicity, cell-based; conditions: l02, 48 h, dose 1-20 µM
[12] = test system: HEK-293T; test: Cytotoxicity against human HEK-293T cells assessed as reduction in cell viability at 1 to 20 uM incubated for 48 hrs by MTT assay; assay type: toxicity, cell-based; conditions: dose 1-20 µM
[13] = Acute toxicity in C57BL/6 mouse assessed as effect on body weight at 1000 to 1500 mg/kg measured after 14 days; assay type: organism-based; conditions: in vivo, 336 h, dose 1000-1500 mg/kg, time 14 day
[14] = biological target: T1, Glycogen synthase kinase-3 beta; test: Inhibition of GSK3-beta in human HEK293T cells harboring tau P301L mutant assessed as inhibition of tau hyperphosphorylation at Ser396 residue measured after 48 hrs by western blot analysis; assay type: cell-based; conditions: dose 2.5-10 µM, DDE = dose-dependent effect
Target sequence in this assay (P49841 whole entry, looked up): as above

[15] = biological target: Glycogen synthase kinase-3 alpha (Homo sapiens) (UniProt P49840); test: Inhibition of GSK3-alpha (unknown origin) at 0.5 to 1 uM; conditions: dose 0.5-1 µM
[16] = biological target: T1, Glycogen synthase kinase-3 beta; test: Inhibition of GSK3-beta in human HEK293T cells harboring tau P301L mutant assessed as reduction of NFT production measured after 24 hrs by fluorescence staining based analysis; assay type: cell-based; conditions: dose 2.5-10 µM, DDE = dose-dependent effect
Target sequence in this assay (P49841 whole entry, looked up): as above

[17] = biological target: Acetylcholinesterase (Electrophorus electricus) (UniProt O42275); test: Potency index, ratio of harmine IC50 to test compound IC50 for electric eel AChE
[18] = biological target: T1, Glycogen synthase kinase-3 beta; test: Inhibition of GSK3-beta in human HEK293T cells harboring tau P301L mutant assessed as increase in GSK3-beta phosphorylation at Ser9 residue measured after 48 hrs by western blot analysis; assay type: cell-based; conditions: dose 2.5-10 µM, DDE = dose-dependent effect
Target sequence in this assay (P49841 whole entry, looked up): as above

[19] = test system: SH-SY5Y; test: Cytotoxicity against human SH-SY5Y cells assessed as reduction in cell viability at 10 uM incubated for 48 hrs by MTT assay; assay type: toxicity, cell-based
[20] = test system: L02; test: Cytotoxicity against human HL7702 cells assessed as reduction in cell viability at 10 uM incubated for 48 hrs by MTT assay; assay type: toxicity, cell-based; conditions: l02, 48 h

Acetylcholinesterase, sequence (O42275 whole entry): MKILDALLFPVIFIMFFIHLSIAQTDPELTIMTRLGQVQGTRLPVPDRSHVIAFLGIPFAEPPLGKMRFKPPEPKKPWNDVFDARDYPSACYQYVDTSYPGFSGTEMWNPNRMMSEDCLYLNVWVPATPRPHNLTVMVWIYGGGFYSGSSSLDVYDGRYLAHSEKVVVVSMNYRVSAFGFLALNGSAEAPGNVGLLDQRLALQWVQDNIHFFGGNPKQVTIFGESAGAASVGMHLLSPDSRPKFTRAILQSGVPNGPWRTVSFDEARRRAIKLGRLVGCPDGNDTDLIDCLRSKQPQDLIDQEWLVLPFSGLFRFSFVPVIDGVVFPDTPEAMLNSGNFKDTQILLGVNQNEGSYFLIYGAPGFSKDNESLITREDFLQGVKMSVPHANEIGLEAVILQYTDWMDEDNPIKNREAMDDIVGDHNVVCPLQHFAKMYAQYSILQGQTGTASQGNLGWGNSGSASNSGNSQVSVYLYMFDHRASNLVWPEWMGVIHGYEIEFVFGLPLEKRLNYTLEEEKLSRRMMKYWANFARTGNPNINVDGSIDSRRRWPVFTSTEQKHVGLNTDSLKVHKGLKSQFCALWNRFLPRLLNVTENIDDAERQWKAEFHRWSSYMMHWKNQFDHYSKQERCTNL
Cholinesterase (Equus caballus), sequence (P81908 whole entry): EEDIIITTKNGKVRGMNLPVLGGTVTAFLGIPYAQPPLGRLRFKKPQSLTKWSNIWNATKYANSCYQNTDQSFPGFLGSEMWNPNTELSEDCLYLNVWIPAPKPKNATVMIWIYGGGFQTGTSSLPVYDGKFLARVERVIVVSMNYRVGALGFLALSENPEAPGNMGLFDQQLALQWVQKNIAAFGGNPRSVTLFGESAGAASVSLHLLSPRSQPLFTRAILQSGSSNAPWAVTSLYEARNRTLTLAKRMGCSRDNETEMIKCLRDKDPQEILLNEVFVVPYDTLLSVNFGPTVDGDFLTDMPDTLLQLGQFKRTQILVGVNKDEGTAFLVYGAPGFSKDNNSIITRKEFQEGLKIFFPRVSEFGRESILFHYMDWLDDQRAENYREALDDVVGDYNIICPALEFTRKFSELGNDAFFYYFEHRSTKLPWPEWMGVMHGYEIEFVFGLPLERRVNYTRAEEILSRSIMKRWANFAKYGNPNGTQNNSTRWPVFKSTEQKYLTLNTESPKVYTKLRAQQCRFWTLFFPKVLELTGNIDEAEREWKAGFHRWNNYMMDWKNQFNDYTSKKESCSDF
Cholinesterase, sequence (P81908 whole entry): as above
Dual specificity tyrosine-phosphorylation-regulated kinase 1B (Homo sapiens), sequence (Q9Y463 whole entry, looked up): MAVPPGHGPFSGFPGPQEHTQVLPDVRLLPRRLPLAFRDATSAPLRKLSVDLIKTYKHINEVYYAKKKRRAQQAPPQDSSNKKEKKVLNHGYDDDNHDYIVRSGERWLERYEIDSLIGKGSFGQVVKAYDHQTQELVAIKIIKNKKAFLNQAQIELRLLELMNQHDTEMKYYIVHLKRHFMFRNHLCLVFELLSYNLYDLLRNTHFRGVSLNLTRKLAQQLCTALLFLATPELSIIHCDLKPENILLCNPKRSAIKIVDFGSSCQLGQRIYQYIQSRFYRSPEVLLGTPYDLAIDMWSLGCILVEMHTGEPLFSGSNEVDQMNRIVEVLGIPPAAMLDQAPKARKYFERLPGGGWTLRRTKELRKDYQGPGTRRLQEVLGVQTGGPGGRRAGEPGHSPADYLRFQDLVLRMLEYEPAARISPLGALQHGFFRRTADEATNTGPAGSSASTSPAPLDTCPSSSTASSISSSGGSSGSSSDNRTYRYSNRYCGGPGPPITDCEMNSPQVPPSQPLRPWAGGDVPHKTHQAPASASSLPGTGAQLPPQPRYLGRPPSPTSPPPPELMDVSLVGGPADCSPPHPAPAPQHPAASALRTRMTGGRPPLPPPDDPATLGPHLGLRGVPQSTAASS
Glycogen synthase kinase-3 alpha (Homo sapiens), sequence (P49840 2-483 limits assumed): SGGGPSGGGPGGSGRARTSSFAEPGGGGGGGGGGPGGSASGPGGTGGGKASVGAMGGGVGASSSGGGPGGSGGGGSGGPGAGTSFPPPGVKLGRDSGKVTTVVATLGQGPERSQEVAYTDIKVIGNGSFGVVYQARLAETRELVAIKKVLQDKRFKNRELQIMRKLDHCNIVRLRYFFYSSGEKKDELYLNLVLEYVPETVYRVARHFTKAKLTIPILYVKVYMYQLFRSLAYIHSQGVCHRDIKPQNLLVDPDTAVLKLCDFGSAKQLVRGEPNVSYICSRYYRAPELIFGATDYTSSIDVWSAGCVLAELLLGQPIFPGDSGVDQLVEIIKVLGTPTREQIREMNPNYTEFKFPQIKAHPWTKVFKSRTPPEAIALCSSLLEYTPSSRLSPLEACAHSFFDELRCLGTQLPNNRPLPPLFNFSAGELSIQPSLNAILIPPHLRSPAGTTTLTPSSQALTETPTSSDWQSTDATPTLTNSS
Acetylcholinesterase (Electrophorus electricus), sequence (O42275 24-633 limits assumed): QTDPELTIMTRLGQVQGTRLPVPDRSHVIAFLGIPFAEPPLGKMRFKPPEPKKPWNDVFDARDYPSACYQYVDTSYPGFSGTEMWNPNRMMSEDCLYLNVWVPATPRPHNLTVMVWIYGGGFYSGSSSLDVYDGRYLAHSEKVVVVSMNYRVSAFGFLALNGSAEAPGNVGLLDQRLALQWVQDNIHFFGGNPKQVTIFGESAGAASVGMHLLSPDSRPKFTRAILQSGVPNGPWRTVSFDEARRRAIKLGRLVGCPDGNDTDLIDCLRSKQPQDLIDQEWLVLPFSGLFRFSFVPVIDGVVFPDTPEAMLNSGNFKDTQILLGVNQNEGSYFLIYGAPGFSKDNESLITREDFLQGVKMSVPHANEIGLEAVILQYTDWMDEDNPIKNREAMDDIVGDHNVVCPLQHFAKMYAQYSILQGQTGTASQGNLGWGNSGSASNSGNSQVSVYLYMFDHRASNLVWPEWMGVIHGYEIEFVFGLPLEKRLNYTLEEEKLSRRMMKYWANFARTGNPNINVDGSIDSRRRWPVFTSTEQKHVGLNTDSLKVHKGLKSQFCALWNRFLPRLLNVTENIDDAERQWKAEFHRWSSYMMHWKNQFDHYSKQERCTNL

| SMILES | inhibition [1] [%] | pIC50 [2] | pIC50 [3] | Ratio IC50 [4] | inhibition [5] [%] | further results |
| --- | --- | --- | --- | --- | --- | --- |
| COc1ccc2c(c1)[nH]c1c(C)nccc12 [HARMINE] | 74.1 | 5.00 | 4.87 |  |  |  |
| O=C(NCCC1CCN(Cc2ccccc2F)CC1)c1ccc2c(c1)[nH]c1c(NC(=O)C3CC3)nccc12 | 63 | 6.57 | 4.68 | 77.1 | 60.8 | pIC50 [6]: 5.17; inhibition [7]: Active; inhibition [8]: Active; Activity [9]: Non-Toxic; Activity [10]: Non-Toxic; Activity [11]: Non-Toxic; Activity [12]: Non-Toxic; Activity [13]: Non-Toxic; inhibition [14]: Dde; inhibition [15]: Active; inhibition [16]: Dde; Ratio IC50 [17]: 37; inhibition [18]: Dde |
| O=C(NC1CCN(Cc2cc(F)cc(F)c2)CC1)c1ccc2c(c1)[nH]c1c(NC(=O)C3CC3)nccc12 | < 10 | 4.48 | < 4.30 | > 1.49 | 41.9 |  |
| O=C(NCCC1CCN(Cc2ccccc2)CC1)c1ccc2c(c1)[nH]c1c(NC(=O)C3CC3)nccc12 | 68.3 | 6.11 | 4.63 | 30.2 | -2.01 |  |
| O=C(NC1CCN(Cc2ccccc2)CC1)c1ccc2c(c1)[nH]c1c(NC(=O)C3CC3)nccc12 | 52.6 | 5.63 | 4.41 | 16.6 | 63.3 |  |
| O=C(NCC1CCN(Cc2ccccc2F)CC1)c1ccc2c(c1)[nH]c1c(NC(=O)C3CC3)nccc12 | 55.6 | 6.08 | 4.47 | 40.7 | 42.1 |  |
| O=C(NC1CCN(Cc2ccc(F)cc2)CC1)c1ccc2c(c1)[nH]c1c(NC(=O)C3CC3)nccc12 | 36.9 | 5.67 | < 4.30 | > 23.4 | 74.6 |  |
| O=C(NCC1CCN(Cc2cccc(F)c2)CC1)c1ccc2c(c1)[nH]c1c(NC(=O)C3CC3)nccc12 | 32.6 | 5.65 | < 4.30 | > 22.3 | 11.1 |  |
| COC(=O)c1ccc2c(c1)[nH]c1c(NC(=O)C3CC3)nccc12 |  | < 4.70 | < 4.70 |  |  | pIC50 [6]: 7.15 |
| O=C(NCCC1CCN(Cc2cc(F)cc(F)c2)CC1)c1ccc2c(c1)[nH]c1c(NC(=O)C3CC3)nccc12 | < 10 | 5.24 | < 4.30 | > 8.62 | 2.71 |  |
| O=C(NCC1CCN(Cc2ccc(F)cc2)CC1)c1ccc2c(c1)[nH]c1c(NC(=O)C3CC3)nccc12 | 39.7 | 5.51 | < 4.30 | > 16.2 | 40.9 |  |
| O=C(NCCC1CCN(Cc2c(Cl)cccc2Cl)CC1)c1ccc2c(c1)[nH]c1c(NC(=O)C3CC3)nccc12 | < 10 | 6.05 | < 4.30 | > 56.2 | 52.1 |  |
| O=C(NCC1CCN(Cc2cc(F)cc(F)c2)CC1)c1ccc2c(c1)[nH]c1c(NC(=O)C3CC3)nccc12 | 10.4 | 5.30 | < 4.30 | > 9.92 |  |  |
| O=C(NCCC1CCN(Cc2ccc(Cl)cc2)CC1)c1ccc2c(c1)[nH]c1c(NC(=O)C3CC3)nccc12 | < 10 | 4.83 | < 4.30 | > 3.35 | 84.3 | Activity [19]: Toxic; Activity [20]: Toxic |
| Cc1ccc(CN2CCC(CNC(=O)c3ccc4c(c3)[nH]c3c(NC(=O)C5CC5)nccc34)CC2)cc1 | 15.3 | 5.52 | < 4.30 | > 16.6 | 46.4 |  |
| Cc1ccc(CN2CCC(CCNC(=O)c3ccc4c(c3)[nH]c3c(NC(=O)C5CC5)nccc34)CC2)cc1 | 44.3 | 5.56 | < 4.30 | > 18.2 | 62.7 |  |

| SMILES | inhibition [1] [%] | pIC50 [2] | pIC50 [3] | Ratio IC50 [4] | inhibition [5] [%] | further results |
| --- | --- | --- | --- | --- | --- | --- |
| O=C(NCC1CCN(Cc2cccc([N+](=O)[O-])c2)CC1)c1ccc2c(c1)[nH]c1c(NC(=O)C3CC3)nccc12 | < 10 | 5.69 | < 4.30 | > 24.4 | 52.1 |  |
| O=C(NCCC1CCN(Cc2ccc(C(F)(F)F)cc2)CC1)c1ccc2c(c1)[nH]c1c(NC(=O)C3CC3)nccc12 | < 10 | 4.51 | < 4.30 | > 1.6 | 73.8 | Activity [19]: Toxic; Activity [20]: Toxic |
| O=C(NCCC1CCN(Cc2cccc([N+](=O)[O-])c2)CC1)c1ccc2c(c1)[nH]c1c(NC(=O)C3CC3)nccc12 | 21.5 | 5.80 | < 4.30 | > 31.9 | 66.2 |  |
| O=C(NC1CCN(Cc2ccc(Cl)cc2)CC1)c1ccc2c(c1)[nH]c1c(NC(=O)C3CC3)nccc12 | < 10 | 4.72 | < 4.30 | > 2.64 | 57.9 |  |
| O=C(NCC1CCN(Cc2ccccc2)CC1)c1ccc2c(c1)[nH]c1c(NC(=O)C3CC3)nccc12 | 37.2 | 5.76 | < 4.30 | 48.1 | 20.8 |  |
| O=C(NC1CCN(Cc2c(Cl)cccc2Cl)CC1)c1ccc2c(c1)[nH]c1c(NC(=O)C3CC3)nccc12 | < 10 | 5.70 | < 4.30 | > 24.9 | 21.9 |  |
| O=C(NCC1CCN(Cc2ccc(C(F)(F)F)cc2)CC1)c1ccc2c(c1)[nH]c1c(NC(=O)C3CC3)nccc12 | < 10 | 4.98 | < 4.30 | > 4.81 | 59.5 |  |
| O=C(NC1CCN(Cc2cccc(F)c2)CC1)c1ccc2c(c1)[nH]c1c(NC(=O)C3CC3)nccc12 | 30.8 | 5.65 | < 4.30 | > 22.5 | 79.8 |  |
| Cc1ccc(CN2CCC(NC(=O)c3ccc4c(c3)[nH]c3c(NC(=O)C5CC5)nccc34)CC2)cc1 | 23 | 5.07 | < 4.30 | > 5.84 | 10.5 |  |
| O=C(NCC1CCN(Cc2c(Cl)cccc2Cl)CC1)c1ccc2c(c1)[nH]c1c(NC(=O)C3CC3)nccc12 | < 10 | 6.47 | < 4.30 | > 147 | 11.3 |  |
| O=C(NCCC1CCN(Cc2cccc(F)c2)CC1)c1ccc2c(c1)[nH]c1c(NC(=O)C3CC3)nccc12 | 65.4 | 6.02 | 4.70 | > 50.1 | 47.8 |  |
| O=C(NC1CCN(Cc2cccc([N+](=O)[O-])c2)CC1)c1ccc2c(c1)[nH]c1c(NC(=O)C3CC3)nccc12 | 20.1 | 5.56 | < 4.30 | > 18.1 | 78 |  |
| O=C(NC1CCN(Cc2ccc(C(F)(F)F)cc2)CC1)c1ccc2c(c1)[nH]c1c(NC(=O)C3CC3)nccc12 | < 10 | 4.86 | < 4.30 | > 3.6 | 71.9 |  |
| O=C(NCC1CCN(Cc2ccc(Cl)cc2)CC1)c1ccc2c(c1)[nH]c1c(NC(=O)C3CC3)nccc12 | < 10 | 4.71 | < 4.30 | > 2.55 | 11.7 |  |
| O=C(NCCC1CCN(Cc2ccc(F)cc2)CC1)c1ccc2c(c1)[nH]c1c(NC(=O)C3CC3)nccc12 | 68.7 | 5.92 | 4.69 | 16.8 | 14.9 |  |
| O=C(NC1CCN(Cc2ccccc2F)CC1)c1ccc2c(c1)[nH]c1c(NC(=O)C3CC3)nccc12 | 30.8 | 5.58 | < 4.30 | > 18.9 | 84.6 |  |
